Laboratory results published in patent publication US20060154346A1, “Microorganism producing 5'xanthylic acid” (priority 2002, published 2006).

Columns and labels:
[1] = test system: Corynebacterium ammoniagenes KCCM 10340; assay: Growth of the strain in medium with added oligomycin (resistance test); assay type: cell-based; set-up: key: +: growth; −: no growth; settings: 30° C. for 5 days
Excerpt: (§1) The invention relates to Corynebacterium ammoniagenes CJXOL 0201 (KCCM-10447) which is a mutant strain of Corynebacterium ammoniagenes KCCM 10340, producing 5′-xanthylic acid. The CJXOL 0201 is obtained by treating Corynebacterium ammoniagenes KCCM 10340 with UV radiation and mutation derivatives such as N-methy-N′-nitro-n-nitrosoguanidine(NTG) according to ordinary procedure, and selecting a mutant strain among these which can grow in the culture medium (glucose 20 g/L, potassium phosphate monobasic 1 g/L, potassium phosphate dibasic 1 g/L, urea 2 g/L, ammonium sulfate 3 g/L, magnesium sulfate 1 g/L, calcium chloride 100 mg/L, ferrous sulfate 20 mg/L, manganese sulfate 10 mg/L, zinc sulfate 10 mg/L, biotin 30 μg/L, thiamine hydrochloride 0.1 mg/L, copper sulfate 0.8 mg/L, adenine 20 mg/L, guanine 20 mg/L, pH 7.2) which different concentration levels of oligomycin (1,2,5,10,20,50 mg/L) is added into. […] 21, 2002 with accession Number KCCM 10447.
(§2) According to the Table 1, the microorganism of the invention can grow in the medium which 10 mg/L oligomycin was added into. The medium was: fermented at 30° C. for 5 days.

[2] = test system: Corynebacterium ammoniagenes CJXOL 0201; assay: as above; assay type: cell-based; set-up: key to growth of strain: +: growth; −: no growth
Excerpt: as §1, §2

CC[C@H]1/C=C/C=C/C[C@@H](C)[C@H](O)[C@@](C)(O)C(=O)[C@@H](C)[C@H](O)[C@@H](C)C(=O)[C@@H](C)[C@H](O)[C@@H](C)/C=C/C(=O)O[C@@H]2[C@H](C)[C@H](CC1)O[C@]1(CC[C@H](C)[C@H](C[C@@H](C)O)O1)[C@H]2C [Oligomycin, oligomycin]
growth of strain ([1]; oligomycin 10 mg/L): +
growth of strain ([1]; oligomycin 20 mg/L): −
growth of strain ([1]; oligomycin 30 mg/L): −
growth of strain ([1]; oligomycin 40 mg/L): −
growth of strain ([1]; oligomycin 50 mg/L): −
oligomycin concentration up to which resistance (growth) was shown; no growth above ([2]; 0˜50 mg/L oligomycin added into selection medium): up to 20 mg/L
growth in medium with oligomycin ([2]; oligomycin 10 mg/L, 30° C. for 5 days): can grow
growth of strain ([2]; oligomycin 30 mg/L, 30° C. for 5 days): +
growth of strain ([2]; oligomycin 40 mg/L, 30° C. for 5 days): −
growth of strain ([2]; oligomycin 50 mg/L, 30° C. for 5 days): −
